Measurements from PMC5532403, “Potential for a novel manganese porphyrin compound as adjuvant canine lymphoma therapy” (Cancer Chemotherapy and Pharmacology, 2017).
Where “and” joins values, the source holds several entries; their conditions need not be identical. Equal entries are not always repeated. Entries after “also recorded” stand apart in the source; their conditions may differ. Where two headings read alike, the source gives them in different places.

Experiments:
[1] = Single-dose pharmacokinetic study, plasma MnBuOE by LC-MS/MS; assay type: in vivo, dog
Protocol: Intravenous catheters were placed in the jugular vein of each dog under heavy sedation (dexmedetomidine, 500 mcg/m^2) 24-h prior to initiation of the pharmacokinetic study to facilitate blood sampling. Baseline pulse and blood pressure (Cardell Vet Monitor 9401 Blood Pressure Monitor) were recorded prior administration of MnBuOE. MnBuOE (5.64 mg/mL) was injected subcutaneously in the dorsal intrascapular region. Following injection, 3–6 mL of blood was collected after 10 min, 30 min, 1 h, 2 h, 4 h, 6 h, 8 h, 24 h, 48 h, 72 h, 7 days, and 14 days into lithium heparin tubes (Vacutainer, 1.3 mL). Whole blood was centrifuged at 1500×g for 20 min, and plasma was collected and stored in 1% citric acid at −80 °C.
Relevant PK parameters (e.g. C max, T max, AUC, clearance, t 1/2) were obtained by compartmental and non-compartmental modules within WinNonlin v. Plasma MnBuOE levels peaked at 30 min post-injection with a mean concentration of 3.993 μM (Fig. 2a), followed by a complex tissue distribution profile (non-linear trace in log-linear plot) within first 6 h post injection (Fig. 2a). […] Compartmental (first-order absorption—2 compartment model) calculations including 0–48 h data were performed on the averaged PK profile for the purpose of obtaining PK parameters needed for the simulation of the multi-dose regimen.

[2] = Multiple dose pharmacokinetic study, plasma MnBuOE; assay type: in vivo, dog
Protocol: MnBuOE was administered at 0.25 mg/kg Monday, Wednesday, and Friday (MWF). Dogs were treated concurrently with diphenhydramine (2 mg/kg every 12 h), famotidine (0.5 mg/kg every 12 h), and prednisone (1 mg/kg every 12 h) throughout these studies. Blood/plasma was collected at two time points: 1 h post dose (expected high levels but “safely” away the peak at C max = 0.5 h) and just prior to injection (trough level). The results are presented on Fig. 4a. As expected, the trough levels measured were very low. […] This would imply that no change in the expected mild acute side effects should be observed. […] The change in pulse increased over time for both treatment week and day of the week. Baseline pulse prior to injection was not altered with multiple doses of MnBuOE.

[3] = system: normal dogs; experiment: Laboratory health assessments (complete blood cell count, biochemistry panel, urinalysis); assay type: in vivo, dog
Protocol: (§1) Safety was assessed by evaluation of standard physical and laboratory parameters of systemic health. A full physical examination was performed prior to initiation of the study and on each treatment and sampling day. Indirect blood pressure monitoring was performed using Cardell Vet Monitor 9401 Blood Pressure Monitor. Pulse was quantified as heart beats per minute according to manual counts, as well as quantified with a blood pressure monitor. There was good correlation between pulse rates counted with manual methods compared to the blood pressure monitor (Figure S1). Standard laboratory assessments (complete blood cell count, biochemistry panel, urinalysis) were repeated throughout the phases of the study to assess systemic health.

[4] = system: normal dogs; experiment: Histopathologic evaluation of necropsy tissues; assay type: in vivo, dog; conditions: 0.25 mg/kg Mon/Wed/Fri five doses
Protocol: Tissue samples collected at necropsy were stored in 10% neutral buffered formalin, paraffin embedded, sectioned, and stained with hematoxylin and eosin. Histopathologic evaluations of the tissues were performed by a veterinary pathologist (KGB).

[5] = system: normal dogs; experiment: Pulse monitoring in multiple dose study; assay type: in vivo, dog; conditions: 0.25 mg/kg sc Mon/Wed/Fri
Protocol: as §1

[6] = system: mice; set-up: method as in PMID 27098749; conditions: sc every 3 days for 5 weeks; cited from earlier work
[7] = system: nonhuman primates; set-up: method as in PMID 27098749; conditions: sc every 3 days for 5 weeks; cited from earlier work
[8] = mice, cited from earlier work
[9] = set-up: method as in unpublished data; conditions: rats, 1 mg/kg; ref unpublished data; cited from earlier work
[10] = set-up: method as in PMID 27098749; conditions: non-human primates, 1 mg/kg; cited from earlier work
[11] = single 1 mg/kg sc, first order absorption two compartments
[12] = single 1 mg/kg sc, non-compartmental
[13] = 0.25 mg/kg sc Mon/Wed/Fri for 3 weeks, 1 h post-injection
[14] = 3 weeks post 0.25 mg/kg Mon/Wed/Fri, concurrent oral medications

CCCCOCC[n+]1ccccc1-c1c2nc(c(-c3cccc[n+]3CCOCCCC)c3ccc([n-]3)c(-c3cccc[n+]3CCOCCCC)c3nc(c(-c4cccc[n+]4CCOCCCC)c4ccc1[n-]4)C=C3)C=C2.[Mn+3] [MnBuOE, Mn(III) meso-tetrakis (N-n-butoxyetylpyridium-2-yl) porphyrin]
plasma half-life t 1/2, primary elimination from central compartment ([1]; single 1 mg/kg sc, 6 to 48 h): 7 h | Cmax ([1]; single 1 mg/kg sc, 30 min post-injection, 1 mg/kg, read-out: peak plasma concentration (C max), mean): 3990 nM and 4000 nM | estimated terminal half-life (secondary processes) ([1]; single 1 mg/kg sc, 48 h to 14 days): 480 h | MnBuOE remaining in plasma ([1]; single 1 mg/kg sc, at 48 h): 1% | time of peak plasma drug concentration (T max) ([1]; single 1 mg/kg sc, post-injection): 0.5 h | AUCinfinite [1, 11]: 42.52 | C max [1, 11]: 4830 ng/mL | CL/F [1, 11]: 0.02 L/h/kg body weight | V/F (4–48 h process) [1, 11]: 0.14 L/kg body weight | t 1/2 (4–48 h) [1, 11]: 6.64 h | t max ([1]; single 1 mg/kg sc, first order absorption two compartments, averaged profile 0–48 h): 0.46 h | AUC0–48h [1, 12]: 52.09 | AUCinfinite [1, 12]: 57.82 | C max [1, 12]: 5000 ng/mL | CL/F [1, 12]: 0.020 L/h/kg body weight | V/F (4–48 h process) [1, 12]: 0.21 L/kg body weight | V/F (7–14 day process) [1, 12]: 13.42 L/kg body weight | t 1/2 (4–48 h) [1, 12]: 7.13 h | t 1/2 (7–14 day) [1, 12]: 509.8 h | t max ([1]; single 1 mg/kg sc, non-compartmental (WinNonlin), individual dogs): 0.5 h | drug eliminated from the plasma ([1]; single-dose 14-day PK study, after 48 h): 99% | plasma MnBuOE concentration following the initial dose [2, 13]: 1.4 µM | plasma MnBuOE concentration plateau with subsequent doses [2, 13]: 0.85 to 1.1 µM | trough plasma levels ([2]; 0.25 mg/kg sc Mon/Wed/Fri, just prior to injection): very low | accumulation of the drug in plasma ([2]; 0.25 mg/kg sc Mon/Wed/Fri, long-term treatment): no accumulation of the drug in plasma was observed; also recorded: no accumulation observed over time | Urinalysis ([3]; 3 weeks post 0.25 mg/kg Mon/Wed/Fri): Alkaline urine (pH = 9) (n = 2/3) | Complete blood cell count ([3]; 3 weeks post 0.25 mg/kg Mon/Wed/Fri, concurrent diphenhydramine, famotidine, prednisone): Stress leukogram (exogenous glucocorticoids) (n = 3/3) | Chemistry panel: acid-base finding [3, 14]: Slight to mild metabolic acidosis (increased anion gap) | Chemistry panel: cholesterol finding [3, 14]: Mild hypocholesterolemia | Chemistry panel: liver enzyme finding [3, 14]: Mildly increased liver enzyme activity (ALP, ALT) | Chemistry panel ([3]; 48 h post 0.25 mg/kg): No remarkable changes in serum biochemistries were seen; also recorded: Unremarkable | Complete blood cell count ([3]; 48 h post 0.25 mg/kg): Unremarkable | Urinalysis ([3]; 48 h post 0.25 mg/kg, one dog analyzed): Alkaline urine (pH = 9) (n = 1/1) | Chemistry panel ([3]; 48 h post 1 mg/kg): Unremarkable | Complete blood cell count ([3]; 48 h post 1 mg/kg): Unremarkable | Urinalysis ([3]; 48 h post 1 mg/kg): Alkaline urine (pH = 9) (n = 2/3) | mean anion gap ([3]; final day of 3-week 0.25 mg/kg study, reference range 11.2–19.9): 21.5 | mean ALT ([3]; final day of 3-week 0.25 mg/kg study, reference range 12–54 IU/L): 133 IU/L | mean ALP ([3]; final day of 3-week 0.25 mg/kg study, reference range 16–140 IU/L): 203 IU/L | mean cholesterol ([3]; final day of 3-week 0.25 mg/kg study, reference range 124–344 mg/dL): 96 mg/dL | Characteristics of lesion, kidney ([4]; necropsy): Acute, multifocal, mild Acute multifocal, moderate | Characteristics of lesion, liver ([4]; necropsy): Marked, multifocal to diffuse, random Marked, multifocal to diffuse, centrilobular to random Marked, diffuse, panlobular, random | Characteristics of lesion, lung ([4]; necropsy): Multifocal, mild, neutrophilic, sterile Multifocal, moderate, neutrophilic sterile | Characteristics of lesion, subcutaneous adipose ([4]; necropsy): Multifocal, mild | Histopathologic appearance, lymph nodes ([4]; necropsy): mildly reactive | Incidence of diagnosis, kidney ([4]; necropsy): n = 3/3 | Incidence of diagnosis, liver ([4]; necropsy): n = 3/3 | Incidence of diagnosis, lung ([4]; necropsy): n = 3/3 | Incidence of diagnosis, subcutaneous adipose ([4]; necropsy): n = 3/3 | Histopathologic diagnosis, kidney ([4]; necropsy 48 h after last dose): acute, mild to moderate tubular degeneration and necrosis of the kidney | Histopathologic diagnosis, liver ([4]; necropsy 48 h after last dose): marked hydropic degeneration of the liver | Histopathologic diagnosis, lung ([4]; necropsy 48 h after last dose): mild to moderate sterile bronchointerstitial/interstitial pneumonia | Histopathologic diagnosis, subcutaneous adipose (injection site) ([4]; necropsy 48 h after last dose): mild necrosupporative/granulomatous inflammation; also recorded: Necrosuppurative/granulomatous steatitis | heart rate 1 h after each injection [5]: Mildly to moderately increased heart rate | baseline pulse prior to injection ([5]; multiple doses): not altered | no adverse effects level (NOAEL), loading dose [6]: 12 mg/kg | no adverse effects level (NOAEL), maintenance dose [6]: 2 mg/kg | no adverse effects level (NOAEL), loading dose [7]: 6 mg/kg | no adverse effects level (NOAEL), maintenance dose [7]: 2 mg/kg | Cmax ([8]; 1 mg/kg, ref unpublished data): 1000 nM | Cmax ([8]; dose adjusted from 6 mg/kg): ~300 nM | Cmax [9]: 1000 nM | Cmax [10]: 1600 nM
